This passage reports IC50 results from PubChem BioAssay AID588780 (Sanford-Burnham Center for Chemical Genomics, 2011).

Activity calls are given as the source filed them.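 Rule for the calls: active = compounds whose fitted half-maximal concentration in the cell-protection dose series is at or below a set limit; inactive = the rest.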

For the experiment, the system named is H9c2 cardiomyocytes, 2-deoxyglucose stress, ATP luminescence, 2 h. Briefly: H9c2 cell survival under 2-deoxyglucose stress – uHTS hits, dose response (AID 588780).
As to `Cc1cc(C(=O)N/N=C/c2cc(Br)ccc2OC(=O)c2ccccc2Cl)n[nH]1`, the IC50 is > 79 µM (inactive).
`Cc1cc(C)nc(SCc2ccc(C(=O)N/N=C/c3ccccn3)cc2)n1`: the IC50 was > 79 µM (inactive).
`COc1ccc(-c2cc(NC(C)=O)c3ncc(-c4cccc(C(C)=O)c4)n3c2)cc1OC`: the IC50 was 7.56 µM.
As to `COc1cccc(/C=N/Nc2ncnc3scc(-c4ccccc4)c23)c1OC`, the IC50 was > 79 µM (inactive).
For `O=c1[nH]c(CN2CCCC2)nc2sc3c(c12)CCC3` the value was > 79 µM (inactive).
For `CN(C)N(Cc1ccccc1)C(=O)C(O)(c1ccccc1)c1ccccc1` the value was > 79 µM (inactive); for `COc1cc(OC)cc(C(=O)NNC(=O)c2ccccn2)c1`, > 79 µM (inactive); for `COc1ccccc1NS(=O)(=O)c1cccc(C(=O)N/N=C/c2c(CO)cnc(C)c2O)c1`, 31.8 µM (inactive).
Then `O=C(CSc1ccc(-c2ccccn2)nn1)N1CCCc2ccccc21`, with > 79 µM (inactive); and `CC1CCCN(Cc2nc3c(c(=O)n(C)c(=O)n3C)n2CCCc2ccccc2)C1` (stereo not given), with 35 µM (inactive); and `Cn1c(=O)c2c(nc(Br)n2Cc2ccc3ccccc3c2)n(C)c1=O`, with > 79 µM (inactive).
Consider `CC(=O)Nc1cccc(/C(C)=N/NC(=O)c2cccs2)c1`, for which the IC50 is > 79 µM (inactive).
As for `COc1ccccc1OCC(=O)N/N=C/c1cccc2cccnc12`, the IC50 is 49.2 µM (inactive).
Then `CCC(C)Nc1ncnc2c1cnn2Cc1ccc(Cl)cc1` (stereo not given), with > 79 µM (inactive).
In the case of `O=c1oc(-c2ccco2)nc2c1cnn2-c1ccccc1`, the IC50 is > 79 µM (inactive).
Then `CC(=C/c1ccc(C(C)C)cc1)/C=N/NC(=O)c1ccncc1`, with > 79 µM (inactive); and `Cn1nc(C(=O)Nc2nc(-c3ccccn3)cs2)c2ccccc2c1=O`, with 39.6 µM (inactive); and `O=C(COC(=O)Cc1n[nH]c(=O)c2ccccc12)Nc1c(Br)cc([N+](=O)[O-])cc1Br`, with > 79 µM (inactive).
With `c1ccc(-c2cc(-c3nnc4sc(-c5ccccn5)nn34)[nH]n2)cc1`, the IC50 is > 79 µM (inactive).
Then `COc1ccc(C(C(=O)NC2CCCC2)N(C(=O)c2snc(C(N)=O)c2N)c2cccc(O)c2)cc1` (stereo not given), with > 79 µM (inactive); and `CC(C)(C)C(=O)Nc1cccc(-c2nnc(-c3cccc(NC(=O)C(C)(C)C)c3)o2)c1`, with > 79 µM (inactive).
Regarding `O=C(NC(O)C(=O)c1cccs1)c1cccnc1` (stereo not given), the IC50 was > 79 µM (inactive).
Then `COc1cccc(C(=O)Nc2cc(C)c3c(=O)oc4ccccc4c3n2)c1`, with > 79 µM (inactive); and `Cc1ccc(Nc2nc(N)[nH]c(=O)c2N=O)cc1`, with > 79 µM (inactive); and `CC(=NO)C1CCC2C3CCC4CC(=NO)CCC4(C)C3C(C)(O)CC12C` (stereo not given), with 14.9 µM.
With `O=c1[nH]c(CSc2nnc(-c3cccnc3)n2C2CCCCC2)nc2ccccc12`, the IC50 is > 79 µM (inactive).
For `N#CC(c1nc2ccccc2nc1N1CCCC1)S(=O)(=O)c1cccs1` (stereo not given) the value was 34.1 µM (inactive); for `O=C(COC(=O)CCc1nc2ccccc2c(=O)[nH]1)NC(c1ccccc1)c1ccccc1`, > 79 µM (inactive).
For `COCCCn1c(C)nc2c(c1=O)c1nc3ccccc3nc1n2CCc1ccccc1` the value was > 79 µM (inactive).
For `COc1ccccc1C(=O)NC(=O)COC(=O)Cn1[nH]c(=O)c2ccccc2c1=O` the value was > 79 µM (inactive); for `CCN(CCO)c1ncnc2c1sc1nc(C(C)C)c3c(c12)CC(C)(C)OC3`, > 79 µM (inactive).
On to `Oc1ccc(Br)cc1C=Nc1ccc2[nH]ncc2c1`, for which the IC50 was > 79 µM (inactive).
For `COc1cccc(-c2nn(-c3ccccc3)cc2C(=O)Nc2nccs2)c1` the value was > 79 µM (inactive); for `COc1ccc2cc3cc(C(=O)NCCc4ccc(OC)c(OC)c4)oc3nc2c1`, 7.71 µM; for `FC(F)(F)c1nnc2ccc(N3CCCC3)nn12`, > 79 µM (inactive).
Then `CC(=O)Nc1ccc(S(=O)(=O)N(Cc2cccnc2)Cc2cc3ccccc3[nH]c2=O)cc1`, with > 79 µM (inactive); and `OC1CCN(c2c3c(nc4cc(-c5cccc(F)c5)nn24)CCCC3)CC1`, with 23.6 µM.
For `O=C(Nc1ccccc1)c1nc[nH]c1C(=O)NCCCCNC(=O)c1[nH]cnc1C(=O)Nc1ccccc1` the value was > 79 µM (inactive).
For the compound `COc1ccc(NCc2cc3cc(OC)ccc3[nH]c2=O)cc1`, the IC50 is > 79 µM (inactive).
Then `CCCC(=O)Nc1nc2ccc(NC(=O)c3ccc(Br)o3)cc2s1`, with > 79 µM (inactive); and `CCCCCCSc1ccc([C@H]2N[C@@](Cc3ccccc3)(C(=O)OC)[C@H]3C(=O)N(C)C(=O)[C@@H]23)cc1`, with > 79 µM (inactive).
Then `CCc1nc2ccc(C(=O)NCc3cccs3)cn2c1N(C)Cc1nccs1`, with 22.4 µM; and `COC(=O)c1ccc(Cn2nnc3c(=O)[nH]c(C4CCCN(S(=O)(=O)c5ccccc5)C4)nc32)cc1` (stereo not given), with > 79 µM (inactive); and `COc1ccc2[nH]c(=O)c(CN(Cc3nnnn3Cc3ccccc3)CC3CCCO3)cc2c1` (stereo not given), with > 79 µM (inactive).
Then `Cc1[nH]c2ccccc2c1/C=N/NC(=O)c1cccs1`, with 40.2 µM (inactive); and `Cc1ccc2nc(SCc3nc4ccccc4c(=O)[nH]3)[nH]c2c1`, with > 79 µM (inactive); and `O=C(Oc1ccc2c(-c3ccccc3)cc(=O)oc2c1)C1CCCCC1`, with 32.9 µM (inactive).
Consider `CC(OC(=O)Cn1[nH]c(=O)c2ccccc2c1=O)C(=O)Nc1cccc(Cl)c1` (stereo not given), for which the IC50 is > 79 µM (inactive).
As to `COc1ccc2[nH]c(=O)c(CN(Cc3cccnc3)S(=O)(=O)c3ccccc3F)cc2c1`, the IC50 was > 79 µM (inactive).
Regarding `NC(=O)c1cc2ccccc2o/c1=N\NC(=O)c1ccc(F)cc1`, the concentration for half-maximal inhibition (IC50) was 8.81 µM.
As to `COc1cc(NS(=O)(=O)c2ccc3ccccc3c2)c2ncccc2c1`, the IC50 was 18.2 µM.
Then `CCOc1ccccc1NC(=O)c1oc2ccccc2c1NC(=O)C1CCCO1` (stereo not given), with 10.6 µM; and `Cc1cc(NC(=O)C2CCCCC2)nc2c1c(=O)oc1ccccc12`, with 15.3 µM; and `CC(=O)Nc1cccc(-c2cc(NC(C)=O)c3ncc(-c4cccc(C(C)=O)c4)n3c2)c1`, with > 79 µM (inactive).
Then `COc1cc(-c2cc(C(=O)Nc3ccccc3N3CCOCC3)c3ccccc3n2)cc(OC)c1OC`, with > 79 µM (inactive).
Regarding `COc1ccc(-c2nnc(NC(=O)c3ccc(F)cc3)o2)cc1`, the IC50 was > 79 µM (inactive).
Then `COc1ccc(CNc2nn3c(-c4cccc(C(=O)N(C)C)c4)cnc3s2)cc1`, with > 79 µM (inactive).
For the compound `O=c1[nH]nc(CNc2ccc(O)cc2)c2ccccc12`, the IC50 was > 79 µM (inactive).
Regarding `CCOc1ccc(C(=O)COC(=O)Cn2[nH]c(=O)c3ccccc3c2=O)cc1`, the IC50 was > 79 µM (inactive).
Then `COC(=O)c1ccc(C(=O)OC)c(NC(=O)COC(=O)C23CC4CC(CC(O)(C4)C2)C3)c1`, with 9.67 µM; and `Cc1ccc(C(c2c(C)n(C)n(-c3ccccc3)c2=O)c2c(C)n(C)n(-c3ccccc3)c2=O)s1`, with > 79 µM (inactive).
For `COc1cc(C(=O)Nc2nc(OC)c(-c3ccccc3)c(OC)n2)cc(OC)c1OC` the value was > 79 µM (inactive); for `c1ccc(-c2nn3c(-c4ccco4)nnc3s2)nc1`, 43.9 µM (inactive).
In the case of `COc1ccc(C2CCCCCN2C(=O)C2CCN(S(=O)(=O)c3cccc(C(C)=O)c3)CC2)cc1` (stereo not given), the IC50 was > 79 µM (inactive).
For `Cc1cc(C)c(OCC(=O)Nc2nc(-c3ccccn3)cs2)c(C)c1` the value was > 79 µM (inactive); for `Cc1c(C(=O)NCC2COc3ccccc3O2)oc2ccc(S(=O)(=O)N3CCOCC3)cc12` (stereo not given), > 79 µM (inactive); for `CN(C(=O)CCc1nc2ccccc2c(=O)[nH]1)C1CCS(=O)(=O)C1` (stereo not given), > 79 µM (inactive).
As for `COc1cccc(NC(=O)c2oc3ccc(S(=O)(=O)N4CCOCC4)cc3c2C)c1`, the IC50 is > 79 µM (inactive).
Then `O=C(CN1CCN(c2ccccc2F)CC1)c1ccc(O)c(O)c1`, with > 79 µM (inactive); and `Cc1ccc2cc3c(NC(=O)c4cccnc4)nn(C)c3nc2c1`, with > 79 µM (inactive); and `CCOC(=O)C1CCN(c2cc3c(cc2NC(=O)c2ccc(F)cc2)n(C)c(=O)n3C)CC1`, with 21.2 µM.
With `COc1cc(OC)c(-c2nn3c(-c4ccco4)nnc3s2)cc1OC`, the half-maximal inhibitory concentration (IC50) is 6.54 µM.
For `O=C(O)c1ccc2c(c1)S(=O)(=O)c1cc(N3CCN(c4cnccn4)CC3)ccc1C2=O` the value was > 79 µM (inactive); for `CCn1c2ccccc2c2nc3cc(OC)c(OC)cc3nc21`, > 79 µM (inactive).
Then `COc1ccc(C(=O)COC(=O)C(CCCCN2C(=O)C3C4C=CC(C4)C3C2=O)N2C(=O)C3C4C=CC(C4)C3C2=O)cc1` (stereo not given), with 13.7 µM; and `CCOc1ccc(NC(=O)c2cc3c(C)nc4ccccc4c3o2)cc1`, with 17.1 µM; and `COc1ccc(NC(=O)N(CCCN(C)C)Cc2cc3cc(OC)ccc3[nH]c2=O)cc1`, with > 79 µM (inactive).
On to `CC1(C)Oc2ccc3ccc(=O)oc3c2/C(=C/Nc2ccccn2)C1=O`, for which the half-inhibitory concentration (IC50) is 10.2 µM.
Then `O=C(Nc1ccc2nc(N3CCOCC3)sc2c1)c1cc2ccccc2o1`, with > 79 µM (inactive); and `O=C(Oc1ccc(N(Cc2cccs2)C2=NS(=O)(=O)c3ccccc32)cc1)c1ccccc1Cl`, with > 79 µM (inactive).
Then `COc1ccc2oc(C(=O)Nc3ccc(N4CCOCC4)cc3)c(C)c2c1`, with > 79 µM (inactive); and `Cc1ccc(-c2n[nH]c(=O)c3ccccc23)cc1N`, with 17.5 µM; and `CCOc1cccc(-c2nn3c(-c4ccccn4)nnc3s2)c1`, with > 79 µM (inactive).
For `COc1cccc(-c2cnc3c(NC=O)cc(-c4cccc(C(=O)N(C)C)c4)cn23)c1` the value was 12.3 µM; for `Oc1c(Br)cc(Br)cc1C=NCc1ccc(F)cc1`, > 79 µM (inactive).
